Paper PMC8791944, “GLUT3 inhibitor discovery through in silico ligand screening and in vivo validation in eukaryotic expression systems” (Scientific Reports, 2022)

Tests used:
Type in all cases: cell-based
[1] = test system: U937 leukemia cells; assay: MTT cancer cell viability assay, U937; conditions: U937, 48 h
Procedure: (§1) A possible therapeutic application of GLUT3 inhibitors is in oncology, especially for cancers in which GLUT3 is a poor prognosis marker. We tested the effect of GLUT3 inhibitors on the cell viability of several different cancer lines: myeloid leukemia (HL60 and U937), lung cancer (A549), colorectal adenocarcinoma (Caco-2), breast cancer (MCF7), hepatocellular carcinoma (HepG2), and choriocarcinoma (BeWo) cells. GLUT3 inhibitors, at five different concentrations, ranging from 2 to 100 µM, were incubated with cancer cells for 48 h. Then, cell viability was assessed with the MTT assay. […] G3iC and G3iD also affected the leukemia cell lines but at double the concentrations of G3iB and G3iE. […] G3iB had some cytotoxic activity (CC50 < 50 µM) against the highest number of cancer cell lines (HL60, U937, A549, HepG2, and MCF7).
(§2) Cancer cell viability in the presence of GLUT3 inhibitors was assayed using the MTT Cell Viability Kit (Biotium Inc, Freemont, CA) according to manufacturer’s instructions. Cancer cells were grown in the corresponding medium, at 37 °C and 5% CO2 in a humidified incubator. The media (Gibco) for leukemia cells (HL60 and U937), A549, MCF7, BeWo, and HepG2 cells were RPMI 1640, Ham’s F-12K, DMEM:F-12, Ham’s F-12K, and EMEM, respectively, all supplemented with 10% (v/v) fetal bovine serum (HyClone). Caco-2 cells were grown in EMEM supplemented with 20% (v/v) fetal bovine serum. Cells were detached from the culture flasks with Accutase (Innovative Cell Technologies, Inc., San Diego, CA) according to manufacturer’s instructions. Cells were seeded in 96-well plates, at a density of ~ 30,000 cells/well (in 100 µl fresh media) and incubated with varying concentrations of GLUT3 inhibitors for 48 h, at 37 °C and 5% CO2 in a humidified incubator. The inhibitors were dissolved in DMSO, at 100× the final concentration, so that 1 µl of the stock inhibitor concentration was added per well, making the final DMSO concentration 1% (v/v). Therefore, controls for 100% cell viability were cells with 1% (v/v) DMSO without the inhibitors. Controls for 0% cell viability were cells treated with 0.3% (v/v) Tween 20. For MTT assay, 10 µl of MTT reagent was added in each well followed by 3–4 h incubation at 37 °C and 5% CO2 in a humidified incubator. After thoroughly mixing in 200 µl DMSO in each well, the plates were put into a plate reader (BioTek Synergy H1), and the absorbances at 570 nm and 630 nm were measured with Gen5 program (BioTek Inc.). The experimental values represent Abs570 nm-Abs630 nm with each inhibitor condition and control being the average of three wells.
(§3) Supplementary Figure S8. Effect of GLUT3 inhibitors on the viability of various cancer cell lines. Cell viability was determined by MTT assay in A549 (lung cancer), BeWo (choriocarcinoma), Caco-2 (colon cancer), HepG2 (liver cancer), HL-60 (leukemia), MCF7 (breast cancer), and U937 (histiocytic lymphoma) cell lines. GLUT3 inhibitors at concentrations of 2, 5, 10, 20, 50, and 100 µM were incubated with cells in 96-well plates for 48 hours before the addition of the MTT reagent.

[2] = test system: HL60 leukemia cells; assay: MTT cancer cell viability assay, HL60; conditions: HL60, 48 h
Procedure: as §1, §2, §3

[3] = test system: A549 (lung cancer) cells; assay: MTT cancer cell viability assay, A549; conditions: A549, 48 h
Procedure: as §1, §2, §3

| Structure (SMILES) | CC50 ([1]; Homo sapiens, U-937, 48 h) | CC50 ([2]; Homo sapiens, HL-60, 48 h) | CC50 ([3]; Homo sapiens) | CC50 [1] | CC50 [2] | CC50 [3] |
| --- | --- | --- | --- | --- | --- | --- |
| Cc1cc(NC(=O)CCC2Cc3ccccc3NC2=O)nc(-c2ccccc2)n1 (stereo not shown) [G3iD] | > 50 µM | 28.7 ± 2.1 µM | 32.5 ± 14.2 µM | – | – | – |
| O=C(Nc1cccc(Cl)c1)c1cccc(NC(=O)c2cccc([N+](=O)[O-])c2)c1 [G3iE, N-{3-[(3-chloroanilino)carbonyl]phenyl}-3-nitrobenzamide] | < 20 µM | < 20 µM | ~33 µM | ~18 µM | 15.7 ± 0.8 µM | > 50 µM |
| Cc1ccccc1CN(Cc1nnc(C(C)(C)C)o1)c1ccc2nc(O)[nH]c2c1 [G3iF] | > 50 µM | > 50 µM | > 100 µM | – | – | – |
| Cc1cccnc1OC1CCN(c2cc(N3CCCC3CO)ncn2)CC1 (stereo not shown) [G3iC] | > 50 µM | 31.1 ± 3.8 µM | ~22 µM | – | – | 21.6 ± 2.5 µM |
| CC(=O)Nc1ccc(S(=O)(=O)Nc2ccc(Nc3cc(N(C)C)nc(C)n3)cc2)cc1 [G3iA, N-(4-{[(4-{[6-(dimethylamino)-2-methylpyrimidin-4-yl]amino}phenyl)amino]sulfonyl}phenyl)acetamide] | > 100 µM | > 100 µM | > 100 µM | – | – | – |
